# Test system: patients with subarachnoid hemorrhage
# Experiment: Clinical study of postoperative EPA administration in patients with subarachnoid hemorrhage caused by ruptured aneurysm (GOS, survival, adverse events)
# Type: in vivo, human
# Source text: Sixty four patients with subarachnoid hemorrhage caused by the ruptured aneurysm and subjected to surgical operations by the third day after onset (22 males and 42 females of the ages from 30's-80's) were divided into two groups (each having 32 individuals) designated as an EPA-administration group and an EPA-non-administration group. In addition, no difference was recognized in their background factors of both groups. Just after the operation, the EPA administration group received the administration of ethyl eicosapentaenoate (trade name: Epadel, manufactured by Mochida Pharmaceutical Co., Ltd.), 1,800 mg divided in three-doses a day for 14 days. Subsequently, the administration was continued during the hospital stay. At the stage of being impossible to dietary intake, tube-feedings were carried out. EPA suspended in hot water was administered through a stomach tube (Magen Sonde). At that time, for enhancing the absorption of EPA, 50 mg of Urso granule (manufactured by Mitsubishi Pharma Corporation) was administered through the stomach tube 15 minutes before EPA administration. At the stage of being possible to dietary intake, a commercial EPA preparation was administered orally. Furthermore, both groups were treated in combination with basic treatments on subarachnoid hemorrhage. However, some of the drugs were defined as prohibited substances. At the 30th day from the onset of subarachnoid hemorrhage, an evaluation was carried out by the Glasgow Outcome Scale (GOS).
# [1] = 30th day from onset, 32 patients per group, 1,800 mg/day
# [2] = 32 patients per group, 1,800 mg/day
compound,measurement,setting,value
"CC/C=C\C/C=C\C/C=C\C/C=C\C/C=C\CCCC(=O)OCC [EPA, ethyl eicosapentaenoate]","GOS: D (Death), number of patients",[1],1
same,"GOS: MD (Moderate disability), number of patients",[1],6
same,"GOS: SD (Severe disability), number of patients",[1],2
same,"GOS: VS (Vegetative state), number of patients",[1],2
same,"GOS: GR (Good recovery), number of patients","30th day from onset, 32 patients per group, 1,800 mg/day in three doses, oral or stomach tube, Wilcoxon U test P=0.0128 vs non-administration group",21
same,"Death, number of patients",[2],1
same,"Survival, number of patients",[2],31
same,Survival rate,"32 patients per group, 1,800 mg/day, Fisher's exact test P=0.0265 vs non-administration group",97%
same,Adverse event considered as a result of the EPA administration,"subarachnoid hemorrhage patients, 1,800 mg/day for 14 days and continued during hospital stay",not found

# From patent publication US20060135607A1, “Drug for improving prognosis for subarachnoid hemorrhage” (MOCHIDA PHARMACEUTICAL CO., LTD., priority 2003, published 2006)
